Holding throughout (assay type): cell-based
The target in one experiment is T1, M3 muscarinic receptor (Homo sapiens, UniProt P20309).
T1 construct: expressed in transfected cells; host or cells: CHO (M3-CHO)
Kind of experiment: Functional mobilization of intracellular calcium (FLIPR) in CHO cells expressing M3. Particulars: for M3 Activity: CHO cells expressing M3, FLIPR calcium assay; for Emax: CHO, 100% efficacy = maximum response obtained with the Carbachol control. The essentials:
(§1)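 Calcium flux is read on FLIPR over 60 sec at 488/540 nm in muscarinic-receptor CHO lines. Antagonist mode adds carbachol at EC80 after 15 min compound preincubation or with simultaneous co-application. Agonist mode adds compound alone. Cells carry Fluo-3 or Calcium 3 dye in probenecid-containing pH 7.4 buffer, 0.5% DMSO final.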
A general note: A change in cytosolic calcium serves as a functional read-out for many receptors and channels.

The next experiment deals with T2, M4 muscarinic receptor (Homo sapiens, UniProt P08173).
T2 construct: expressed in transfected cells; host or cells: CHO (M4-CHO)
T2 sequence (P08173 1-479): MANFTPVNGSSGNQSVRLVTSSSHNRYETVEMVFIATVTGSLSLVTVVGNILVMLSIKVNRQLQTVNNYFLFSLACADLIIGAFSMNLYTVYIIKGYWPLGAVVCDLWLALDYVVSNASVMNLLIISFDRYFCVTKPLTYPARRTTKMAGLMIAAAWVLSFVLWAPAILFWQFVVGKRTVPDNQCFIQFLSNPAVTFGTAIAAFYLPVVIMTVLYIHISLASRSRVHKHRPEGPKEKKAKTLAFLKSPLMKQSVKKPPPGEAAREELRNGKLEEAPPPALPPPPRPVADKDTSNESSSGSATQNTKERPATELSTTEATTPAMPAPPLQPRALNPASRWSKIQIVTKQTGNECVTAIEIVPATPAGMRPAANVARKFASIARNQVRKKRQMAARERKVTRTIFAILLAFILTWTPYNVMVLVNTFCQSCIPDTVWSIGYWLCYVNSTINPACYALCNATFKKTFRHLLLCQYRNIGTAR
Kind of experiment: Functional mobilization of intracellular calcium (FLIPR) in CHO cells expressing M4. Particulars: for M4 Activity: CHO cells expressing M4, FLIPR calcium assay; for Emax: CHO, 100% efficacy = maximum response obtained with the Carbachol control. The essentials:
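Read-out: FLIPR fluorescence (ex 488, em 540 nm) over 60 s. Recombinant CHO lines are dye-loaded (Fluo-3 AM or Calcium 3) with 1 mM probenecid. For antagonist mode, compound is pre-incubated 15 min, or co-applied, then carbachol is added at 3× EC80 per subtype.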

The target of another experiment is T3, M1 muscarinic receptor (Homo sapiens, UniProt P11229).
T3 construct: expressed in transfected cells; host or cells: CHO (M1-CHO)
T3 sequence (P11229 1-460): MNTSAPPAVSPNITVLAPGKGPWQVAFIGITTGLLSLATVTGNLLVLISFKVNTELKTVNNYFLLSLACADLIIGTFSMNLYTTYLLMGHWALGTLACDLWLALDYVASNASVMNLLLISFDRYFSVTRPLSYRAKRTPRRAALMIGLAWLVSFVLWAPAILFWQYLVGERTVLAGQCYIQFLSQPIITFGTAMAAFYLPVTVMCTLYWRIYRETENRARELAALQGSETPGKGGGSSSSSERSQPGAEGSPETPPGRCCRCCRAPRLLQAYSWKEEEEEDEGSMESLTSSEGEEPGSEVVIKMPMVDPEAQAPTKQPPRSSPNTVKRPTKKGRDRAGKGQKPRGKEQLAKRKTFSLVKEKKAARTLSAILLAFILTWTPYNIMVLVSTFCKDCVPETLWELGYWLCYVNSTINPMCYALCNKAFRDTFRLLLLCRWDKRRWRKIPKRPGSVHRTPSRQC
Kind of experiment: Functional mobilization of intracellular calcium (FLIPR) in CHO cells expressing M1. The conditions noted are these: for M1 Activity: CHO cells expressing M1, FLIPR calcium assay; for Emax: CHO, 100% efficacy = maximum response obtained with the Carbachol control. In outline: as §1

The target in a further experiment is T4, M2 muscarinic receptor (Homo sapiens, UniProt P08172).
T4 construct: expressed in transfected cells; host or cells: CHO (M2-CHO)
T4 sequence (P08172 1-466): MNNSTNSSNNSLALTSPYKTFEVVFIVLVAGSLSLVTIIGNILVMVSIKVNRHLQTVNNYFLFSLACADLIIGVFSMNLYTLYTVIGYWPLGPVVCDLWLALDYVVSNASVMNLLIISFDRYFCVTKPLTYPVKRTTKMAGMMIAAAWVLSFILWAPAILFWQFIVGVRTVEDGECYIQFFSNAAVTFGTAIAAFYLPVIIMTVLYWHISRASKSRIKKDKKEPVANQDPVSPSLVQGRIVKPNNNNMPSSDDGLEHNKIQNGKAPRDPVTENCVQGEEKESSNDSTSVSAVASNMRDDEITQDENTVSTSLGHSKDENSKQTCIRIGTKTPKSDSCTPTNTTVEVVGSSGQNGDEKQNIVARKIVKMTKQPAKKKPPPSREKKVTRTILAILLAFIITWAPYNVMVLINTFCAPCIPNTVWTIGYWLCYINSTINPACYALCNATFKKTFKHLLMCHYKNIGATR
Kind of experiment: Functional mobilization of intracellular calcium (FLIPR) in CHO cells expressing M2. Particulars: for M2 Activity: CHO cells expressing M2, FLIPR calcium assay; for Emax: CHO, 100% efficacy = maximum response obtained with the Carbachol control. In outline: as §1

Molecules are shown by their SMILES.

The term Emax denotes the maximal effect, on the per cent scale that the assay sets.

T1 sequence (P20309 whole entry): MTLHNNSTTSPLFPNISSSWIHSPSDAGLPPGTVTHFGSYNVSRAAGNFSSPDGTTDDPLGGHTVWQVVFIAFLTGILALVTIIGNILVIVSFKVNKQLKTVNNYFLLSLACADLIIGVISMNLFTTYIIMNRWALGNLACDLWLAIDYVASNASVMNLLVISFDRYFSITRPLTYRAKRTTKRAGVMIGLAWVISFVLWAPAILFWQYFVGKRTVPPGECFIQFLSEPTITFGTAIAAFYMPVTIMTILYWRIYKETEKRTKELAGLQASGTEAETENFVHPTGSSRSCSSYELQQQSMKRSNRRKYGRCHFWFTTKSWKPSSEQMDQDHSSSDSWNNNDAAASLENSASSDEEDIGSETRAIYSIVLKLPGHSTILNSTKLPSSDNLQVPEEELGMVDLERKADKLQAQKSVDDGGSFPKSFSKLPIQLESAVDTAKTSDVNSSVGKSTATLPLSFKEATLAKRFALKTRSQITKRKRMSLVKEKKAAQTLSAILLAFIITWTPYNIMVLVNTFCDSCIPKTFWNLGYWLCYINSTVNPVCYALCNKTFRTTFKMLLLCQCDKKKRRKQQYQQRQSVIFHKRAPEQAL

Regarding `CC(C)(C)CCN1CCC2(CC1)C[C@H](NC(=O)C1CCCC1)c1ccccc12` [compound 225], on M3 muscarinic receptor, the “M3 Activity” value is “+ (activity was measured to be greater than 5.0 μM)” and the Emax was less than 25%. At M4 muscarinic receptor, the “M4 Activity” value is listed as “+ (activity was measured to be greater than 5.0 μM)” and the Emax was less than 25%. On M1 muscarinic receptor, the “M1 Activity” value was “+ (activity was measured to be greater than 5.0 μM)” and the Emax is less than 25%. At M2 muscarinic receptor, the “M2 Activity” value is “+ (activity was measured to be greater than 5.0 μM)” and the Emax was less than 25%.
On to `CCN(CC)C(=O)CN1CCC2(CC1)C[C@H](NC(C)=O)c1ccccc12` [compound 226], for which, at M3 muscarinic receptor, the “M3 Activity” value is given as “+ (activity was measured to be greater than 5.0 μM)” and the Emax is less than 25%. At M4 muscarinic receptor, the “M4 Activity” value is “+ (activity was measured to be greater than 5.0 μM)” and the Emax is less than 25%. Besides, on M1 muscarinic receptor, the “M1 Activity” value is on record as “+ (activity was measured to be greater than 5.0 μM)” and the Emax was less than 25%. Moreover, on M2 muscarinic receptor, the “M2 Activity” value is reported as “+ (activity was measured to be greater than 5.0 μM)” and the Emax is less than 25%.
As for `CCCC(=O)N[C@H]1CC2(CCN(CCC(C)C)CC2)c2ccccc21` [compound 227], at M3 muscarinic receptor, the “M3 Activity” value is “+ (activity was measured to be greater than 5.0 μM)” and the Emax was less than 25%. In addition, at M4 muscarinic receptor, the “M4 Activity” value is given as “+ (activity was measured to be greater than 5.0 μM)” and the Emax is less than 25%. In addition, on M1 muscarinic receptor, the “M1 Activity” value was “+ (activity was measured to be greater than 5.0 μM)” and the Emax was less than 25%. Besides, on M2 muscarinic receptor, the “M2 Activity” value is “+ (activity was measured to be greater than 5.0 μM)” and the maximum response (Emax) is less than 25%.
Turning to `CC(=O)N[C@H]1CC2(CCN(CC(N)=O)CC2)c2ccccc21` [compound 229], on M3 muscarinic receptor, the “M3 Activity” value is listed as “+ (activity was measured to be greater than 5.0 μM)” and the Emax was less than 25%. At M4 muscarinic receptor, the “M4 Activity” value is on record as “+ (activity was measured to be greater than 5.0 μM)” and the Emax was less than 25%. Also, at M1 muscarinic receptor, the “M1 Activity” value is “+ (activity was measured to be greater than 5.0 μM)” and the Emax is less than 25%. Besides, on M2 muscarinic receptor, the “M2 Activity” value is given as “+ (activity was measured to be greater than 5.0 μM)” and the Emax is less than 25%.
Turning to `CCC(=O)N[C@H]1CC2(CCN(CCC(C)(C)C)CC2)c2ccccc21` [compound 230], the Emax at M3 muscarinic receptor is less than 25%; at M4 muscarinic receptor, 25 to 100%; at M1 muscarinic receptor, 25 to 100%; on M2 muscarinic receptor, less than 25%.
In the case of `CCC(=O)N[C@H]1CC2(CCN(CCC(C)C)CC2)c2ccccc21` [compound 231], at M3 muscarinic receptor, the “M3 Activity” value is given as “+ (activity was measured to be greater than 5.0 μM)” and the Emax was less than 25%. Also, on M4 muscarinic receptor, the “M4 Activity” value is “+++ (activity was measured to be less than 2.0 μM)” and the Emax was less than 25%. Besides, on M1 muscarinic receptor, the “M1 Activity” value was “+ (activity was measured to be greater than 5.0 μM)” and the maximal effect (Emax) was less than 25%. Besides, at M2 muscarinic receptor, the “M2 Activity” value is on record as “+ (activity was measured to be greater than 5.0 μM)” and the Emax is less than 25%.
`CN1CCC2(CCCc3ccccc32)CC1` [compound 232]: at M3 muscarinic receptor, the “M3 Activity” value is reported as “+ (activity was measured to be greater than 5.0 μM)” and the Emax was less than 25%. Moreover, on M4 muscarinic receptor, the “M4 Activity” value is “+ (activity was measured to be greater than 5.0 μM)” and the Emax was less than 25%. In addition, at M1 muscarinic receptor, the “M1 Activity” value is recorded as “+ (activity was measured to be greater than 5.0 μM)” and the Emax was less than 25%. Moreover, at M2 muscarinic receptor, the “M2 Activity” value was “+ (activity was measured to be greater than 5.0 μM)” and the maximal effect (Emax) was less than 25%.
`COC(=O)CN1CCC2(CC1)C[C@H](NC(C)=O)c1ccccc12` [compound 233]: on M3 muscarinic receptor, the “M3 Activity” value is “+ (activity was measured to be greater than 5.0 μM)” and the Emax was less than 25%. In addition, on M4 muscarinic receptor, the “M4 Activity” value is “+ (activity was measured to be greater than 5.0 μM)” and the Emax was less than 25%. Also, at M1 muscarinic receptor, the “M1 Activity” value is listed as “+ (activity was measured to be greater than 5.0 μM)” and the Emax was 25 to 100%. Moreover, at M2 muscarinic receptor, the “M2 Activity” value was “+ (activity was measured to be greater than 5.0 μM)” and the Emax is less than 25%.
Take `CCOc1ccc(CN2CCC3(CC[C@H](NC(C)=O)c4ccccc43)CC2)cc1` [compound 234]: at M3 muscarinic receptor, the “M3 Activity” value is given as “+ (activity was measured to be greater than 5.0 μM)” and the Emax was less than 25%. For the same compound, on M4 muscarinic receptor, the “M4 Activity” value is recorded as “++ (activity was measured to be from 2.0 μM to 5.0 μM)” and the Emax lay within 25 to 100%. Moreover, on M1 muscarinic receptor, the “M1 Activity” value was “++ (activity was measured to be from 2.0 μM to 5.0 μM)” and the Emax fell in the range of 25 to 100%. For the same compound, on M2 muscarinic receptor, the “M2 Activity” value is reported as “+ (activity was measured to be greater than 5.0 μM)” and the Emax is less than 25%.
In the case of `CC(=O)N[C@H]1CC2(CCN(CC(=O)NCC(C)C)CC2)c2ccccc21` [compound 235], on M3 muscarinic receptor, the “M3 Activity” value is recorded as “+ (activity was measured to be greater than 5.0 μM)” and the Emax is less than 25%. Moreover, on M4 muscarinic receptor, the “M4 Activity” value is “+ (activity was measured to be greater than 5.0 μM)” and the Emax was less than 25%. For the same compound, on M1 muscarinic receptor, the “M1 Activity” value is “+ (activity was measured to be greater than 5.0 μM)” and the Emax is less than 25%. Further, at M2 muscarinic receptor, the “M2 Activity” value is reported as “+ (activity was measured to be greater than 5.0 μM)” and the Emax was less than 25%.
With `CC(=O)N[C@H]1CC2(CCN(C(C)CC(C)C)CC2)c2ccccc21` (stereo partly shown) [compound 236], on M3 muscarinic receptor, the “M3 Activity” value is “+ (activity was measured to be greater than 5.0 μM)” and the Emax is less than 25%. For the same compound, at M4 muscarinic receptor, the “M4 Activity” value is given as “+ (activity was measured to be greater than 5.0 μM)” and the Emax is less than 25%. In addition, at M1 muscarinic receptor, the “M1 Activity” value is listed as “+ (activity was measured to be greater than 5.0 μM)” and the Emax was less than 25%. In addition, at M2 muscarinic receptor, the “M2 Activity” value is on record as “+ (activity was measured to be greater than 5.0 μM)” and the Emax is less than 25%.
As for `COC(=O)CCCN1CCC2(CC1)C[C@H](NC(C)=O)c1ccccc12` [compound 237], on M3 muscarinic receptor, the “M3 Activity” value is “+ (activity was measured to be greater than 5.0 μM)” and the Emax was less than 25%. Besides, on M4 muscarinic receptor, the “M4 Activity” value is recorded as “+ (activity was measured to be greater than 5.0 μM)” and the Emax fell in the range of 25 to 100%. Moreover, on M1 muscarinic receptor, the “M1 Activity” value is “+ (activity was measured to be greater than 5.0 μM)” and the Emax fell in the range of 25 to 100%. Moreover, at M2 muscarinic receptor, the “M2 Activity” value was “+ (activity was measured to be greater than 5.0 μM)” and the Emax was less than 25%.
With `C/C=C(\C)CN1CCC2(CC1)C[C@H](NC(C)=O)c1ccccc12` [compound 238], on M3 muscarinic receptor, the “M3 Activity” value is recorded as “+ (activity was measured to be greater than 5.0 μM)” and the Emax is less than 25%. Further, on M4 muscarinic receptor, the “M4 Activity” value was “+ (activity was measured to be greater than 5.0 μM)” and the Emax is less than 25%. In addition, on M1 muscarinic receptor, the “M1 Activity” value is “+ (activity was measured to be greater than 5.0 μM)” and the Emax is less than 25%. In addition, on M2 muscarinic receptor, the “M2 Activity” value was “+ (activity was measured to be greater than 5.0 μM)” and the maximal response (Emax) was less than 25%.
